According to the supplement of paper PMC10307832:

What was measured:
Test in all cases: relative viability (nuclei count vs DMSO), 5 days (fraction); higher = more cells survive
[1] = compound: Cc1ccc2nc(NCCN)c3ncc(C)n3c2c1 + COc1cc2c(Oc3ccc(NC(=O)C4(C(=O)Nc5ccc(F)cc5)CC4)cc3F)ccnc2cc1OCCCN1CCOCC1 [Foretinib] (partner 0.25 µM)
How it was run: (§1)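 Lung cancer cell lines in 1536-well plates were dosed by pin tool the day after seeding, either with one drug alone or with a fixed anchor-drug dose plus five library-drug doses (not always all listed) in √10 steps. After 5 days, cells were fixed and their nuclei stained in one step (final 0.05% Triton X-100, 1% formaldehyde, 1 ug/ml Hoechst), then counted on 4× images. Relative viability is the nuclei count in treated wells divided by that in vehicle wells. Values are medians of duplicate plates.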

Salubrinal + Pemetrexed = compound: O=C(/C=C/c1ccccc1)NC(NC(=S)Nc1cccc2cccnc12)C(Cl)(Cl)Cl [Salubrinal] + Nc1nc2[nH]cc(CCc3ccc(C(=O)N[C@@H](CCC(=O)O)C(=O)O)cc3)c2c(=O)[nH]1 [Pemetrexed] (partner 0.2 µM)
How it was run: as §1

Salubrinal + Lapatinib = compound: O=C(/C=C/c1ccccc1)NC(NC(=S)Nc1cccc2cccnc12)C(Cl)(Cl)Cl [Salubrinal] + CS(=O)(=O)CCNCc1ccc(-c2ccc3ncnc(Nc4ccc(OCc5cccc(F)c5)c(Cl)c4)c3c2)o1 [Lapatinib] (partner 2 µM)
How it was run: as §1

Salubrinal + OSI-027 = compound: O=C(/C=C/c1ccccc1)NC(NC(=S)Nc1cccc2cccnc12)C(Cl)(Cl)Cl [Salubrinal] + COc1cccc2cc(-c3nc([C@H]4CC[C@H](C(=O)O)CC4)n4ncnc(N)c34)[nH]c12 [OSI-027] (partner 0.5 µM)
How it was run: as §1

| Cell Line | relative viability ([1]; first compound 0.04 µM) | relative viability ([1]; first compound 0.1265 µM) | relative viability ([1]; first compound 0.4 µM) | relative viability ([1]; first compound 1.265 µM) | relative viability ([1]; first compound 4 µM) | relative viability (Salubrinal + Pemetrexed; first compound 0.08 µM) | relative viability (Salubrinal + Pemetrexed; first compound 0.253 µM) | relative viability (Salubrinal + Pemetrexed; first compound 0.8 µM) | relative viability (Salubrinal + Pemetrexed; first compound 2.53 µM) | relative viability (Salubrinal + Pemetrexed; first compound 8 µM) | relative viability (Salubrinal + Lapatinib; first compound 0.08 µM) | relative viability (Salubrinal + Lapatinib; first compound 0.253 µM) | relative viability (Salubrinal + Lapatinib; first compound 0.8 µM) | relative viability (Salubrinal + Lapatinib; first compound 2.53 µM) | relative viability (Salubrinal + Lapatinib; first compound 8 µM) | relative viability (Salubrinal + OSI-027; first compound 0.08 µM) | relative viability (Salubrinal + OSI-027; first compound 0.253 µM) | relative viability (Salubrinal + OSI-027; first compound 0.8 µM) | relative viability (Salubrinal + OSI-027; first compound 2.53 µM) | relative viability (Salubrinal + OSI-027; first compound 8 µM) |
| --- | --- | --- | --- | --- | --- | --- | --- | --- | --- | --- | --- | --- | --- | --- | --- | --- | --- | --- | --- | --- |
| HCC-78 | 0.579 | 0.584 | 0.493 | 0.626 | 0.558 | 0.928 | 0.837 | 0.971 | 0.918 | 0.899 | 0.4 | 0.795 | 1.06 | 0.788 | 0.832 | 0.363 | 0.364 | 0.435 | 0.362 | 0.361 |
| HCC-366 | 0.914 | 0.945 | 0.934 | 0.945 | 0.917 | 0.194 | – | 0.165 | 0.153 | 0.161 | 1.23 | 0.796 | 1.12 | 1.01 | 1.08 | 1.04 | 1.13 | 0.91 | 0.844 | 0.549 |
| HCC-827 | 1.05 | 1.1 | 1.06 | 1.02 | 0.935 | 0.503 | 0.276 | 0.278 | 0.227 | 0.245 | 0.191 | 0.196 | 0.171 | 0.235 | 0.165 | 0.88 | 0.794 | 0.822 | 0.788 | 0.668 |
| HOP-62 | 1.05 | 1.07 | 1.1 | 1.13 | 1.02 | 0.244 | 0.267 | 0.317 | 0.315 | 0.331 | 1.06 | 0.927 | 1.01 | 1.16 | 0.968 | 0.819 | 0.765 | 1.11 | 0.849 | 0.714 |
| IA-LM | 1.19 | 1.25 | 1.07 | 1.16 | 0.928 | – | – | – | – | – | 0.742 | 0.536 | 0.916 | 0.856 | 0.593 | – | – | – | – | – |
| LC-2-ad | 0.96 | 0.879 | 0.876 | 0.984 | 0.868 | 0.242 | 0.276 | 0.268 | 0.272 | 0.264 | 1.07 | 0.608 | 1.1 | 0.971 | 0.868 | 0.91 | 0.797 | 1.03 | 0.818 | 0.782 |
| LCLC-97TM1 | 0.91 | 0.998 | 0.934 | 0.931 | 0.892 | 0.169 | 0.218 | 0.19 | 0.158 | 0.158 | 1.03 | 0.799 | 0.842 | – | 0.857 | 0.574 | 0.433 | 0.671 | 0.56 | 0.601 |
| LCLC-103H | 0.753 | 0.919 | 0.802 | 0.761 | 0.633 | 0.439 | 0.539 | 0.506 | 0.461 | 0.457 | – | – | – | – | – | 0.494 | 0.393 | 0.5 | 0.49 | 0.398 |
| LK-2 | 1.28 | 1.2 | 0.936 | 0.967 | 1.06 | 0.321 | 0.24 | 0.463 | 0.335 | 0.254 | 1.07 | 0.977 | 1.16 | 0.994 | 0.85 | 0.185 | 0.194 | 0.258 | 0.212 | 0.214 |
| LOU-NH91 | 0.914 | 0.929 | 0.889 | 0.93 | 0.844 | 0.708 | 0.368 | 0.5 | 0.343 | 0.371 | 0.71 | 0.776 | 0.776 | 0.778 | 0.752 | 0.721 | 0.708 | 0.744 | 0.737 | 0.688 |
| LU99A | 0.884 | 0.796 | 0.805 | 0.921 | 0.83 | 0.176 | 0.205 | 0.265 | 0.265 | 0.185 | 1.17 | 1.15 | 1.13 | 0.945 | 0.594 | 0.241 | 0.29 | 0.306 | 0.294 | 0.265 |
| NCI-H441 | 1.1 | 1.28 | 0.982 | 0.926 | 0.918 | 0.271 | 0.274 | 0.274 | 0.275 | 0.255 | – | – | – | – | – | 0.603 | 0.59 | 0.678 | 0.573 | 0.506 |
| NCI-H522 | – | – | – | – | – | 1.24 | 0.933 | 1.09 | 1.06 | 1.07 | – | – | – | – | – | 0.74 | 0.661 | 0.734 | 0.791 | 0.571 |
| NCI-H727 | 1.23 | 0.778 | 0.894 | 0.911 | 1.18 | – | – | – | – | – | 1.01 | 0.848 | 0.899 | 0.812 | 0.903 | 0.505 | 0.621 | 0.562 | 0.618 | 0.575 |
| NCI-H1299 | 1.12 | 1.14 | 1.09 | 1.05 | 1 | – | – | – | – | – | 0.96 | 0.924 | 0.98 | 0.918 | 0.883 | – | – | – | – | – |
| NCI-H1623 | 0.945 | 0.94 | 0.897 | 0.761 | 0.79 | – | – | – | – | – | – | – | – | – | – | 0.482 | 0.387 | 0.544 | 0.386 | 0.44 |
| NCI-H1648 | – | – | – | – | – | 0.843 | 0.637 | 0.759 | 0.705 | 0.584 | – | – | – | – | – | 0.23 | 0.268 | 0.257 | 0.269 | 0.266 |
| NCI-H1703 | 0.307 | 0.316 | 0.322 | 0.368 | 0.327 | – | – | – | – | – | 1.24 | – | 1.24 | 0.917 | 0.892 | – | – | – | – | – |
| NCI-H1792 | – | – | – | – | – | 1.07 | – | 1.24 | 0.795 | 0.572 | 1.11 | – | 1.64 | 0.914 | 0.873 | 0.97 | – | 0.626 | 0.75 | 0.684 |
| NCI-H2342 | 1.24 | 1.06 | 0.987 | 1.05 | 1.14 | 0.722 | 0.772 | 0.937 | 0.758 | 0.826 | – | – | – | – | – | 0.653 | 0.523 | 0.608 | 0.639 | 0.561 |
| SW 900 | 1.11 | 1.08 | – | 0.684 | 0.772 | 0.508 | 0.423 | 0.505 | 0.485 | 0.468 | – | – | – | – | – | 0.545 | – | 0.737 | 0.576 | 0.481 |
